2 molecules from patent publication US7026514B2, “Compounds used to treat alcoholism” (Garbil Pharma Investigacion Chile Ltda., priority 2001, dated 2006) can be followed below.

Data set [1] concerns genetically-alcoholic rats, UChB strain. The data set is described as follows: Anti-alcoholism activity during a post-treatment period (27 days). It counts as in vivo, Wistar rats. The note with it: 27 days after the 30-day treatment at 40 mg/kg. As to the method: (§1) The effect of the administration of N,N′-bis(3-aminopropyl)-cyclohexane-1,4-diamine tetramethanesulfonate monohydrate to Wistar rats of both sexes belonging to the UChB strain, at a dose of 40 mg/kg during a treatment period of 30 days, was assessed in an experiment analogous to the one of Example 4. Individual consumptions of alcohol and water, measured daily, were grouped in cycles of 3 consecutive days, thus reducing data to ten average values.
The effect of the administration of N,N′-bis(3-aminopropyl)-cyclohexane-1,4-diamine tetramethanesulfonate monohydrate to Wistar rats of both sexes belonging to the UChB strain, during a post-treatment period of 27 days (9 cycles of 3 days) after the prolonged treatment of Example 5, was assessed in an analogous experiment. […] Therefore, the effect of N,N′-bis(3-aminopropyl)-cyclohexane-1,4-diamine tetramethanesulfonate monohydrate lasts substantially for a long time after a prolonged treatment, without recovering the initial levels of alcohol/water consumption.

For data set [2] the test system is unchanged. The data set is described as follows: Anti-alcoholism activity during a prolonged treatment period (30 days). It counts as in vivo, Wistar rats. The note with it: 40 mg/kg, treatment period of 30 days.
Excerpt: (§2) As an animal model of alcoholic mammals, including human beings, adult Wistar rats of both sexes, belonging to the UChB strain were used. This strain of rats is the result of a long selection at the University of Chile, and rats belonging to it are known to be volunteer consumers of 10% (v/v) aqueous alcohol (cf. J. Mardones and N. Segovia-Riquelme, “Thirty two years of selection of rats by ethanol preference”: UChA and UChB strains”, Neurobehav. Toxicol. and Teratol. 1983, vol. 5, pp. 171–178). Thus, the rats used in these experiments can be considered genetically alcoholic.
Rats were kept in individual cages at 22° C., with alternative 12 h periods of light and darkness. […] All experiments were double-blind, and results were analyzed using common statistical methods. As changes in alcohol consumption might be influenced by the eagerness of food and/or water intake, both the consumption of food and of water were measured and analyzed. […]
as §1

Data set [3] shares this test system. The data set is described as follows: Anti-alcoholism activity in genetically-alcoholic rats (3 or 6 day treatment). It counts as in vivo, Wistar rats. The note with it: for lowered alcohol consumption: vs reference period.
Excerpt: as §2
Rats were kept in individual cages at 22° C., with alternative 12 h periods of light and darkness. Besides unlimited access to food, they had ad libitum access to water and 10% (v/v) aqueous alcohol. All experiments were double-blind, and results were analyzed using common statistical methods. As changes in alcohol consumption might be influenced by the eagerness of food and/or water intake, both the consumption of food and of water were measured and analyzed. […] In each experiment the following three periods of time were considered:
a) A reference period, consisting of the three days previous to treatment. The measured consumption values were used as reference for comparison purposes.
b) A treatment period, consisting of the three or six days during which aqueous solutions of the tested compound were intra-gastrically administered, always at the same time of the day. N,N′-bis(3-aminopropyl)cyclohexane-1,4-diamine tetramethanesulfonate monohydrate was administered at two doses, 20 mg/kg of body weight and 40 mg/kg, using aqueous solutions of the tested compound of concentrations 10 g/L and 20 g/L, respectively. Dose of 20 mg/kg was tested both for 3 consecutive days and 6 consecutive days. Dose of 40 mg/kg was tested only for 3 consecutive days.
c) A post-treatment period, consisting of the three days immediate after the treatment period, during which measurement were taken in order to establish the duration of the effect and the reversibility of the changes.

Data set [4] relates to metabolism of acetaldehyde. The data set is described as follows: Assessment of disulfiram-like adverse effect (blood acetaldehyde after ethanol, gas chromatography). It counts as in vivo, Wistar male rats. As to the method: The possible disulfiram-like adverse effect of N,N′-bis(3-aminopropyl)cyclohexane-1,4-diamine tetramethanesulfonate monohydrate was studied by gas-chromatographic measurements of the blood concentration of acetaldehyde in standard Wistar male rats, after the intraperitoneal administration of 2.76 g/kg of ethanol in the form of 10% (v/v) aqueous solution. Blood samples were taken from the tail (0.5, 1.0 and 2.0 h after ethanol administration) and from the suprahepatic vein (2.0 h after ethanol administration).

Consider `CS(=O)(=O)O.CS(=O)(=O)O.CS(=O)(=O)O.CS(=O)(=O)O.NCCCNC1CCC(NCCCN)CC1.O` (centres unmarked) [N,N′-bis(3-aminopropyl)cyclohexane-1,4-diamine tetramethanesulfonate monohydrate], for which, in data set [1], the “decrease of alcohol consumption at the end of the post-treatment period” value came to 24%. The “decrease in alcohol consumption at the end of the treatment period” value in data set [2] is 71%. Further, the lowered alcohol consumption in data set [3] (20 mg/kg intra-gastric for 6 days, first 6 hours after administration, p<0.01) is given as 25%; in data set [3] (40 mg/kg intra-gastric for 3 days), 27%. Further, the “decrease of alcohol consumption along the post-treatment period” value in data set [3] (40 mg/kg for 3 days, three days after treatment) is “this decrease was kept along the post-treatment period”. In addition, in data set [3] (6-24 h after administration, compared with first 6 h), the “decreases of alcohol consumption in the period of 6-24 h” value is “smaller”. Further, in data set [3] (20 or 40 mg/kg, 3 or 6 days), the “changes in the consumption of both food and water” value is reported as “not significant”. The “overall activity as anti-alcoholism agent” value in data set [3] (overall results of Example 4) is on record as “substantial activity as anti-alcoholism agent”. Further, the “levels of acetaldehyde in blood” value in data set [4] (40 mg/kg oral 2, 6, 8 and 24 h before 2.76 g/kg i.p. ethanol, blood at 0.5, 1.0, 2.0 h) is “did not raised levels of acetaldehyde in blood”. Besides, the “block of the metabolism of acetaldehyde” value in data set [4] (conclusion from blood acetaldehyde after ethanol, disulfiram in a control test) is on record as “does not block the metabolism of acetaldehyde significantly”.

Consider `CCN(CC)C(=S)SSC(=S)N(CC)CC` [disulfiram, tetraethylthiuram disulfide, reference compound], for which the “block of the metabolism of acetaldehyde” value in data set [4] (rat, in vivo) is “contrary to what happens with disulfiram”.
